Test results reported in patent US20080293725A1, “Prognostic Molecular Markers” (priority 2004, published 2008).
“And” between values parts separate entries of the source, which are not always exact repeats. Equal entries are not always repeated.

Key:
[1] = system: sarcoma patients; experiment: Clinical outcome of sarcoma patients treated with ET-743, matched with BRCA1, ERCC1 and XPD mRNA expression in tumor samples; type: in vivo, human; parameters: PFS6 rate (progression free survival higher than 6 months) / patients achieving progression free survival >=6 months (PFS6) / overall progression free survival at 6 months (Kaplan-Meier) / median survival at 12 months: concentration or dose not given beside the values
Method: In this study, 61 paraffin embedded tumoral samples from sarcoma patients before the treatment with any chemotherapy agent have been evaluated.
The majority of patients were treated before with one or several chemotherapy agents and later they followed a treatment with ET-743. The dosage of intravenous infusion ET-743 given to the different patients was within the range of 1.650-1.0 mg/m2; the schedules were 24 hours or 3 hour IV infusion with a three week interval between cycles; and the number of cycles ranged from 1 up to 25 cycles in some patients.
The clinical data from the patients was collected in the clinical data collection form and matched with the molecular data after completion of the mRNA expression levels determination (Table 1).
We examined XPD, ERCC1 and/or BRCA1 gene expression in formalin-fixed, paraffin-embedded tumor specimens from the 61 patients as previously described (Specht K. et al. Am J Pathol, 2001, 158, 419-429 and Krafft A E. et al. Mol Diagn. 1997, 3, 217-230). After standard tissue sample deparaffinisation using xylene and alcohols, samples were lysed in a tris-chloride, EDTA, sodium dodecyl sulphate (SDS) and proteinase K containing buffer. RNA was then extracted with phenol-chloroform-isoamyl alcohol followed by precipitation with isopropanol in the presence of glycogen and sodium acetate. RNA was resuspended in RNA storage solution (Ambion Inc; Austin Tex., USA) and treated with DNAse I to avoid DNA contamination. cDNA was synthesized using M-MLV retrotranscriptase enzyme. Template cDNA was added to Taqman Universal Master Mix (AB; Applied Biosystems, Foster City, Calif., USA) in a 20-μl reaction with specific primers and probe for each gene. The primer and probe sets were designed using Primer Express 2.0 Software (AB). Quantification of gene expression was performed using the ABI Prism 7900HT Sequence Detection System (AB). The primers and 5′ labeled fluorescent reporter dye (6FAM) probe were as follows: β-actin: forward 5′ TGA GCG CGG CTA CAG CTT 3′, reverse 5′ TCCTTAATGTCACGCACGATTT 3′, probe 5′ ACC ACC ACG GCC GAG CGG 3′; BRCA1: forward 5′ GGCTATCCTCTCAGAGTGACATTTTA 3′, reverse 5′ GCTTTATCAGGTTATGTTGCATGGT 3′, probe 5′ CCA CTC AGC AGA GGG 3′; ERCC1: forward 5′ GGGAATTTGGCGACGTAATTC 3′, reverse 5′ GCG GAG GCT GAG GAA CAG 3′, probe 5′CACAGGTGCTCTGGCCCAGCACATA 3′; XPD: forward 5′ GCTCCCGCAAAAACTTGTGT 3′, reverse 5′ CAT CGA CGT CCT TCC CAA A 3′, probe 5′ ACCCTGAGGTGACACCCCTGC 3′.
Relative gene expression quantification was calculated according to the comparative Ct method using β-actin as an endogenous control and commercial RNA controls (Stratagene, La Jolla, Calif.) as calibrators. Final results, were determined as follows: 2^−(^Δ^Ct sample−^Δ^Ct calibrator), where ΔCT values of the calibrator and sample are determined by subtracting the […]. In all experiments, only triplicates with a standard deviation (SD) of the Ct value <0.20 were accepted. In addition, for each sample analyzed, a retrotranscriptase minus control was run in the same plate to assure lack of genomic DNA contamination.
SAS v8.2 (statistical software) was used for all the statistical analysis. The statistical techniques for univariate, bivariate and multivariate variables were chosen, according with the nature of variables that will be analysed, i.e. when the dependent variable is a temporal variable with censor status the Cox regression would be applied, when correlation between variables will be computed the Pearson and/or Spearman measures would be used. P-values below 0.05 will be considered statistically significant in all tests, when appropriate 95% confidence intervals will be presented too.
A total of 61 paraffin embedded tumor samples were evaluated. […] These samples came from sarcoma patients before being treated with a chemotherapy agent.

[2] = system: HCC1937 breast cancer cell line; conditions: wild-type BRCA1 reconstituted vs BRCA1-negative HCC1937; cited from earlier work
[3] = BRCA1 mRNA <1.97 (low expression)
[4] = BRCA1 mRNA >=1.97 (high expression)
[5] = ERCC1 mRNA <5.86 (low expression)
[6] = ERCC1 mRNA >=5.86 (high expression)
[7] = Kaplan-Meier FIG. 2A, high BRCA1 expressers
[8] = Kaplan-Meier FIG. 2A, high BRCA1 expression
[9] = Kaplan-Meier FIG. 2A, low BRCA1 expression
[10] = Kaplan-Meier FIG. 2B, high ERCC1 expression
[11] = Kaplan-Meier FIG. 2B, low ERCC1 expression
[12] = Kaplan-Meier FIG. 2C (XPD), high expression
[13] = Kaplan-Meier FIG. 2C (XPD), low expression
[14] = XPD mRNA <1.99 (low expression)
[15] = XPD mRNA >=1.99 (high expression)

## COc1cc2c(cc1O)CCN[C@]21CS[C@@H]2c3c(OC(C)=O)c(C)c4c(c3[C@H](COC1=O)N1[C@@H]2[C@H]2c3c(cc(C)c(OC)c3O)C[C@@H]([C@@H]1O)N2C)OCO4 [ET-743, ecteinascidin 743]
[1]; 16% to 21%
  increase in objective response, low BRCA1 subpopulation vs full cohort: 1.3 fold
[1]; 24% to 38%
  increase in PFS6 rate, low BRCA1 subpopulation vs full cohort: 1.6 fold
[1]; 55 evaluable patients
  overall response rate (RR), PR + Minor Responses: 16%
  overall response rate (RR), only Partial Responses: 15%
[1]; 55 evaluable patients, (8 PR+1 MR+6 SD)/55
  patients achieving progression free survival >=6 months (PFS6): 27%
[1]; BRCA1 cohort, Total
  PD (number of patients): 30
  PFS <6 (number of patients): 38
  PFS >=6 (number of patients): 12
  PR + MR (number of patients): 8
[1]; BRCA1 mRNA <1.97
  PD (number of patients): 12
  PFS <6 (number of patients): 16
  PFS >=6 (number of patients): 9
  PR + MR (number of patients): 5
[1]; [3]
  objective response (PR+MR): 21%
  patients reaching PFS6 (PFS >=6 months): 38% and 36%
[1]; BRCA1 mRNA >=1.97
  PD (number of patients): 18
  PFS <6 (number of patients): 22
  PFS >=6 (number of patients): 3
  PR + MR (number of patients): 3
[1]; [4]
  objective response (PR+MR): 11%
  patients reaching PFS6 (PFS >=6 months): 12%
[1]; ERCC1 cohort, Total
  PD (number of patients): 22
  PFS <6 (number of patients): 29
  PR + MR (number of patients): 6
[1]; ERCC1 mRNA <5.86
  PD (number of patients): 12
  PFS <6 (number of patients): 16
  PFS >=6 (number of patients): 3
  PR + MR (number of patients): 2
[1]; [5]
  objective response (PR+MR): 11%
  patients reaching PFS6 (PFS >=6 months): 16%
[1]; ERCC1 mRNA >=5.86
  PD (number of patients): 10
  PFS <6 (number of patients): 13
  PFS >=6 (number of patients): 6
  PR + MR (number of patients): 4
[1]; [6]
  objective response (PR+MR): 21%
  patients reaching PFS6 (PFS >=6 months): 32%
[1]; [7]
  PFS (median): 1.5 months
  median survival: 5.4 months
[1]; [8]
  median survival at 12 months: 35.71%
  percentage of patients with PFS6: 11.54%
[1]; [9]
  PFS (median): 2.3 months
  median survival: 11.7 months
  median survival at 12 months: 42.23%
  percentage of patients with PFS6: 41.67%
[1]; Kaplan-Meier FIG. 2B, high ERCC1 expressers
  median survival: 19.4 months
[1]; [10]
  PFS6: 31.58%
  median PFS: 2.2 months
[1]; [11]
  PFS6: 21.05%
  median PFS: 1.4 months
  median survival: 16.8 months
[1]; [12]
  PFS6: 30%
  median PFS: 2.0 months
  median survival: 19.4 months
[1]; Kaplan-Meier FIG. 2C (XPD), low expressers
  median survival: 16.8 months
[1]; [13]
  PFS6: 17.65%
  median PFS: 1.2 months
[1]; XPD cohort, Total
  PD (number of patients): 22
  PFS <6 (number of patients): 29
  PFS >=6 (number of patients): 8
  PR + MR (number of patients): 5
[1]; XPD mRNA <1.99
  PD (number of patients): 11
  PFS <6 (number of patients): 14
  PFS >=6 (number of patients): 3
  PR + MR (number of patients): 2
[1]; [14]
  objective response (PR+MR): 12%
  patients reaching PFS6 (PFS >=6 months): 18%
[1]; XPD mRNA >=1.99
  PD (number of patients): 11
  PFS <6 (number of patients): 15
  PFS >=6 (number of patients): 5
  PR + MR (number of patients): 3
[1]; [15]
  objective response (PR+MR): 15%
  patients reaching PFS6 (PFS >=6 months): 25%
[1]; all patients
  median duration of the response (PR+MR): 13.6 months
  range of duration of the response (PR+MR): 44.1 to 3.8 months
  range of survival: 0.1-66.9 months
[1]; all patients, 14 patients still censored
  median survival: 7.7 months
[1]; all patients, FIG. 1
  median survival (Kaplan-Meier): 10.2 months
  overall progression free survival at 6 months (Kaplan-Meier): 27.65%
[1]; full cohort with BRCA1 data (8/51)
  objective response (PR+MR): 16%
[1]; full cohort with BRCA1 data (12/50)
  PFS6 rate (progression free survival higher than 6 months): 24%

## N.N.[Cl][Pt][Cl] [cisplatin]
[2]
  increase in resistance: 20 fold
